From patent US20200163896A1, “FLOATABLE PHARMACEUTICAL MICROCAPSULE COMPOSITION” (Nanyang Technological University, priority 2017, published 2020)
Read-outs that look alike come from different tables or passages of the source.

What was measured:
[1] = In vitro drug release in SGF for 48 h; format: physicochemical; conditions: 37° C., casein 0-5% (w/v)
Experimental: In vitro release study was conducted in SGF for 48 h. In some experiments, the study was conducted in SGF, followed by SIF, where the total duration in SGF and SIF is 48 h. Each microcapsule sample (20 mg) was added to a bottle containing SGF or SIF medium (20 mL). Both SGF and SIF bottles were placed in a 37° C. rotating incubator. At different time points, half of the medium (10 mL) in each bottle was extracted and replaced with 10 mL new medium. The time points included intervals of hours within a 48-hour period. The drug content in the extracted medium was analyzed using RP-HPLC with the procedure mentioned in Example 1 for determining encapsulation efficiency.

[2] = cited from earlier work
[3] = Plasma pharmacokinetics after oral gavage in mice; format: in vivo; conditions: for MRT: mouse, plasma, oral, Table 3
Experimental: The experimental mice were divided into two groups (control and F2) each comprising of five animals. Control formulation (as a solution) was prepared fresh each experimental day in 0.6% methyl cellulose diluted with saline solution. Mice were subsequently administered with 200 ul (control) or 300 μl (pellet) single dose of drug solution at LD:CD:ENT=10:2.5:20 mg·kg^−1 (Group 1, conventional formulation) and LD:CD:ENT=10:2.5:20 mg·kg^−1 (Group 2, F2 via oral gavage using a feeding syringe. At stipulated time points of 0.25, 0.5, 1, 2, 4, 8, 12, 24 hr, the mice were euthanized and blood was collected via cardiac puncture with ethylenediaminetetraacetic acid (EDTA) as the anticoagulant. The blood samples were then centrifuged (4,500 rpm) for 10 min at 25° C. to obtain the plasma. In addition, the brain was harvested and flash freeze in liquid nitrogen. Samples were stored in −80° C. before further analysis via LC/MS. Analysis of drugs in plasma and brain was conducted using LC/MS (Ribeiro et al., (2015). Bioanalysis, 7, 207-220). An Agilent 1290 HPLC system with an Agilent 6120 Quadrupole Mass Spectrometer was used to measure plasma and brain concentrations of drugs. The mobile phase consisted of a gradient of (A) 0.1% (v/v) formic acid (FA) and a mixture of ACN:MeOH (90:10, v/v) containing 0.1% (v/v) FA.
XBridge C8 column (150×4.6 mm; particle size 5 μm) was used at 30° C. The injection volume of samples was 20 μl. Plasma and brain extracted solution were mixed with internal standard and extracted by solid-phase extraction. The calibration curves were linear over the range of 2 to 2000 ng/mL for LD, 2 to 400 ng/mL for CD and 5 to 3000 ng/mL for ENT.

[4] = casein-microcapsule versus control

Row | SMILES | Release rate of drug from microcapsules versus casein concentration [1] | Log P [2] | other results
1 | C[C@@](Cc1ccc(O)c(O)c1)(NN)C(=O)O [CD, carbidopa] | independent of casein concentration |  | 
2 | CC[C@@H](CO)NCCN[C@@H](CC)CO [ETH, ethambutol] | independent of casein concentration | −0.14 | 
3 | NNC(=O)c1ccncc1 [ISO, isoniazid] | independent of casein concentration | −0.7 | 
4 | N[C@@H](Cc1ccc(O)c(O)c1)C(=O)O [LD, levodopa] | independent of casein concentration |  | increase of MRT of levodopa [3, 4]: ~4 ×; increase of bioavailability (AUC) of levodopa [3, 4]: 2.8 ×; MRT ([3]; given as casein-microcapsule, read-out: mean residence time (MRT) of levodopa, casein-microcapsule): 10.1 h; MRT ([3]; given as control formulation, read-out: mean residence time (MRT) of levodopa, control): 2.6 h
5 | CN(C)C(=N)N=C(N)N [MET, metformin] | independent of casein concentration |  | 
6 | CO[C@H]1/C=C/O[C@@]2(C)Oc3c(C)c(O)c4c(O)c(c(/C=N/N5CCN(C)CC5)c(O)c4c3C2=O)NC(=O)/C(C)=C\C=C\[C@H](C)[C@H](O)[C@@H](C)[C@@H](O)[C@@H](C)[C@H](OC(C)=O)[C@@H]1C [RIF, rifampicin] |  | 4.24 | 
